The record followed here is patent publication US7494980B2, “Antimicrobial peptide and methods of use thereof” (The United States of America as represented by the …, priority 2003, dated 2009).

In one assay the test system is S. mutans LT11. The assay is described as follows: In vitro susceptibility (broth microdilution MIC, MBC by spiral-plating). Format: cell-based, Streptococcus mutans. The settings on record: 4 × 10^7 cells ml^−1, 24-48 h. From the text: (§1) Strains used in Examples 3-6 included ATCC and laboratory strains of different oral bacteria. These included: Actinomyces naeslundii strain T14V-J1, Actinomyces israelii ATCC 10049, Streptococcus mutans strains LT 11 and ATCC 25175, Streptococcus sobrinus ATCC 33478, Streptococcus gordonii strains DL1 and ATCC 51656, Streptococcus sanguis strains SK36 and ATCC 10556, Streptococcus salivarius ATCC 9222, Streptococcus oralis strains 34 and ATCC 35037, Lactobacillus salivarius ATCC 29602, Lactobacillus acidophilus ATCC 4357, and Actinobacillus actinomycetemcomitans ATCC 43718. S. mutans strain LT 11 was kindly provided by Lin Tao, University of Illinois at Chicago, Ill. S. gordonii DLI, S. sanguis SK36, and S. oralis 34 were provided by John Cisar, National Institute of Dental and Craniofacial Research, NIH, Bethesda, Md. […]
(§2) MICs were determined as described by Fuchs et al. (1998) with a slight modification. […] The MIC was defined as the lowest concentration of the peptide that prevented visible turbidity, as measured at 600 nm by using an ELISA reader (Titertek Multiskan MCC/340). […] Minimum bactericidal concentrations (MBCs) were determined by spiral-plating (Spiral Plater Autoplate 4000; Spiral Biotech) 50 μl from each clear well (≧MIC) onto BAP.
(Dilution methods test growth across graded concentrations, often in twofold steps.)

In a further assay the test system is L. salivarius ATCC 29602. The description is as above. The format is cell-based, Lactobacillus salivarius. The settings on record: 24-48 h.
Text: as §1, §2

A further assay concerns L. acidophilus ATCC 4357. Described as above. Format: cell-based, Lactobacillus acidophilus.
Text: Strains used in Examples 3-6 included ATCC and laboratory strains of different oral bacteria. These included: Actinomyces naeslundii strain T14V-J1, Actinomyces israelii ATCC 10049, Streptococcus mutans strains LT 11 and ATCC 25175, Streptococcus sobrinus ATCC 33478, Streptococcus gordonii strains DL1 and ATCC 51656, Streptococcus sanguis strains SK36 and ATCC 10556, Streptococcus salivarius ATCC 9222, Streptococcus oralis strains 34 and ATCC 35037, Lactobacillus salivarius ATCC 29602, Lactobacillus acidophilus ATCC 4357, and Actinobacillus actinomycetemcomitans ATCC 43718. S. mutans strain LT 11 was kindly provided by Lin Tao, University of Illinois at Chicago, Ill. S. gordonii DLI, S. sanguis SK36, and S. oralis 34 were provided by John Cisar, National Institute of Dental and Craniofacial Research, NIH, Bethesda, Md.
Todd-Hewitt broth (THB), brain heart infusion (BHI) broth, Todd-Hewitt agar (THA), trypticase soy agar (TSA), lactobacilli MRS (MRS) broth, Actinomyces broth and Mueller-Hinton broth (MHB) were purchased from Becton Dickinson. Blood agar plates (BAP) were prepared by supplementing TSA with 5% sheep blood (PML Microbiologicals). All cultures, except for Actinobacillus actinomycetemcomitans, S. mitis and Actinomyces israelii, were grown at 37° C. in room air. Actinobacillus actinomycetemcomitans cultures were grown on BAP or in MHB supplemented with 15 μg haemin ml^−1 (Sigma), 15 μg β-nicotinamide adenine dinucleotide (NAD) ml^−1 (Sigma) and 5% yeast extract (Becton Dickinson) at 37° C. in 5% CO2. S. mitis was grown on BAP or in BHI broth at 37° C. in 5% CO2. […]
as §2

Assay [1] has as its system saliva bacteria (facultative anaerobic oral bacteria collected from saliva). The assay is described as follows: In vitro killing of saliva bacteria. The format is cell-based. The settings on record: 200 μg KSL ml^−1, 30 min at 37° C., vs PBS. As to the method:
The killing assay of saliva bacteria was done according to procedures established by Helmerhorst et al. (1999). Unstimulated saliva was collected from four healthy individuals who had refrained from eating for at least 2 hours. The study was approved by the Institutional Review Board of the Walter Reed Army Institute of Research and informed consent and sample donation consent were obtained from all volunteers. Pooled saliva was initially spun at 500 r.p.m. in an Eppendorf centrifuge (model 5810R) for 10 min at 4° C. to remove epithelial cells and mucus. Saliva bacteria were collected by spinning the supernatant at 4000 r.p.m. for 15 min at 4° C. The pellet was washed three times in 10 mM potassium phosphate buffer (PPB) and suspended in the same buffer to give approximately 1.0×10^7 cells ml^−1. Bacterial suspension (250 μl) was mixed with 250 μl peptide to obtain final peptide concentrations of 12.5, 25, 50, 100 and 200 μg ml^−1. After incubation of the mixture at 37° C. for 30 min, cells were spun down to remove KSL, washed once in PBS having a pH of 7.4 and suspended in PBS before spiral-plating 50 μl of the treated and untreated cells in different dilutions on BAP. The negative control was exposed to buffer only. Saliva bacteria exposed to 0.12% aqueous chlorhexidine served as positive controls. […]

The test system of assay [2] is Actinobacillus actinomycetemcomitans ATCC 43718. The assay is described as follows: In vitro susceptibility (broth microdilution MIC, MBC by spiral-plating). Format: cell-based. The settings on record: 4 × 10^7 cells ml^−1, 24-48 h.
Text: as §1, §2

The subject of another assay is S salivarius ATCC 9222. The assay is described as above. The format is cell-based, Streptococcus salivarius. The settings on record: 24-48 h.
Text: as §1, §2

Ends that are not written are not given here. Where only a bound is given, the exact number is not on record here.

As for “KKVVFKVKFK-NH2 [KSL, lys-lys-val-val-phe-lys-val-lys-phe-lys]”, the MIC with S. mutans LT11 (MHB, 37° C.) came to 25 µg/mL; against L. salivarius ATCC 29602 (10% MRS, 4 × 10^6 cells ml^−1, 37° C.), 3.13 µg/mL; with L. acidophilus ATCC 4357 (10% MRS, 4 × 10^6 cells ml^−1, 37° C., 24-48 h), 3.13 µg/mL; in assay [2] (50% BHI, 5% CO2, 37° C.), 100 µg/mL; against S salivarius ATCC 9222 (MHB, 4 × 10^6 cells ml^−1, 37° C.), 50 µg/mL. For the same substance, the minimum bactericidal concentration (MBC) in the assay with S. mutans LT11 (clear MIC wells plated on BAP) stood at 100 µg/mL; in the assay on L. salivarius ATCC 29602 (clear MIC wells plated on BAP), 12.5 µg/mL; in the assay with L. acidophilus ATCC 4357 (clear MIC wells plated on BAP, 24-48 h) it was 12.5 µg/mL; in assay [2] (clear MIC wells plated on BAP), 200 µg/mL; in the assay on S salivarius ATCC 9222 (clear MIC wells plated on BAP), 100 µg/mL. Also, in the assay with L. acidophilus ATCC 4357, the “concentration inhibiting growth effectively” value is < 25 µg/mL. In assay [1], the “log reduction in facultative anaerobes in saliva” value is given as 1.05 log.

For orientation: MIC means the lowest concentration found to suppress growth. Higher therefore signals weaker potency. The MBC is the smallest concentration meeting the test's criterion for killing. Read a low MBC as greater bactericidal potency.
